Laboratory results: US12692269B2, “Therapeutic compounds” (Genentech, Inc., priority 2019, dated 2026)

Assays:
Assay type in all cases: binding
TEAD2 YAP50-100 = TEAD2 YAP50-100 (Homo sapiens, UniProt Q15562); assay: TEAD2-YAP HTRF (TR-FRET) protein-protein interaction assay; conditions: TEAD2, YAP peptide 50-100, HTRF; for EC50: read-out: TEAD2 YAP50-100 HTRF combined: EC50
Procedure, shortened: (§1)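 Read-out is the TR-FRET 665 nm/615 nm ratio, which falls when compound disrupts TEAD binding to YAP (aa 50-100) or TAZ (aa 13-57) peptide. Eu anti-His-labelled His-TEAD (aa 217-447) saw compound for 30 min, then peptide/streptavidin-XL665 for 60 min, room temperature.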

TEAD4 YAP50-100 = TEAD4 YAP50-100 (Homo sapiens, UniProt Q15561); assay: TEAD4-YAP HTRF (TR-FRET) protein-protein interaction assay; conditions: TEAD4, YAP peptide 50-100, HTRF; for EC50: read-out: TEAD4 YAP50-100 HTRF combined: EC50
TEAD4 YAP50-100, sequence (Q15561 217-434 limits assumed): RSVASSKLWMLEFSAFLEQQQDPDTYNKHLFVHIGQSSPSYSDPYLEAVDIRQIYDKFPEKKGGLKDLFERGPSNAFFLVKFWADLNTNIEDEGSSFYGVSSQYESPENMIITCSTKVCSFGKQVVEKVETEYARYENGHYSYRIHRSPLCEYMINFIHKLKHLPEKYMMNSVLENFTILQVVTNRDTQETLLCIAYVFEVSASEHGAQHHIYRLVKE
Procedure, shortened: as §1

TEAD1 YAP50-100 = TEAD1 YAP50-100 (Homo sapiens, UniProt P28347); assay: TEAD1-YAP HTRF (TR-FRET) protein-protein interaction assay; conditions: TEAD1, YAP peptide 50-100, HTRF; for EC50: read-out: TEAD1 YAP50-100 HTRF combined: EC50
TEAD1 YAP50-100, sequence (P28347 167-426 limits assumed): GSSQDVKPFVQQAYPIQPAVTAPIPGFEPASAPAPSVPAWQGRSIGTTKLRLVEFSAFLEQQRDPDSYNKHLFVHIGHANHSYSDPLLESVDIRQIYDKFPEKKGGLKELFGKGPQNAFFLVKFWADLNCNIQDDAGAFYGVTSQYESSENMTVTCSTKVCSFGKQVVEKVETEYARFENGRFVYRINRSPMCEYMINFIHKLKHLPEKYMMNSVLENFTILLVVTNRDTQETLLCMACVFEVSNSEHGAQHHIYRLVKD
Procedure, shortened: as §1

[1] = biological target: TEAD1 TAZ (amino acids 13-57) (Homo sapiens, UniProt P28347); assay: TEAD1-TAZ HTRF (TR-FRET) protein-protein interaction assay; conditions: for TEAD1 TAZ HTRF combined: Max % Inhibition: TEAD1, TAZ peptide; for EC50: TEAD1-TAZ HTRF, TR-FRET 665 nm/615 nm, read-out: TEAD1 TAZ HTRF combined: EC50
TEAD1 TAZ (amino acids 13-57), sequence (P28347 167-426 limits assumed): as above
Procedure, shortened: as §1

TEAD3 YAP50-100 = TEAD3 YAP50-100 (Homo sapiens, UniProt Q99594); assay: TEAD3-YAP HTRF (TR-FRET) protein-protein interaction assay; conditions: TEAD3, YAP peptide 50-100, HTRF; for EC50: read-out: TEAD3 YAP50-100 HTRF combined: EC50
TEAD3 YAP50-100, sequence (Q99594 173-435 limits assumed): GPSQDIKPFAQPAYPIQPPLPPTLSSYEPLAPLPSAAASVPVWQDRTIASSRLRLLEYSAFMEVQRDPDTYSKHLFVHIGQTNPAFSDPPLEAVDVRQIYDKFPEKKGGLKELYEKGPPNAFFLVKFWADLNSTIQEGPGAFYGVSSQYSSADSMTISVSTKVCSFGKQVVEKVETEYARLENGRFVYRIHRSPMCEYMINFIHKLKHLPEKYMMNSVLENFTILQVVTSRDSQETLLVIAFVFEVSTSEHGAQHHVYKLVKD
Procedure, shortened: as §1

[2] = biological target: TEAD2 TAZ (amino acids 13-57) (Homo sapiens, UniProt Q15562); assay: TEAD2-TAZ HTRF (TR-FRET) protein-protein interaction assay; conditions: for TEAD2 TAZ HTRF combined: Max % Inhibition: TEAD2, TAZ peptide; for EC50: TEAD2-TAZ HTRF, TR-FRET 665 nm/615 nm, read-out: TEAD2 TAZ HTRF combined: EC50
TEAD2 TAZ (amino acids 13-57), sequence (Q15562 217-447): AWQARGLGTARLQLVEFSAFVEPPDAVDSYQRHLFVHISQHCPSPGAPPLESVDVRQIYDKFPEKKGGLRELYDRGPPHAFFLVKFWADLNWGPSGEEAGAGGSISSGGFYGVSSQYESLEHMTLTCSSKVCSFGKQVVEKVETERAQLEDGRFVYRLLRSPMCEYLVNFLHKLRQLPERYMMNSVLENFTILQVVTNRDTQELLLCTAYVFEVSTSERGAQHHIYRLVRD
Procedure, shortened: as §1

[3] = biological target: TEAD3 TAZ (amino acids 13-57) (Homo sapiens, UniProt Q99594); assay: TEAD3-TAZ HTRF (TR-FRET) protein-protein interaction assay; conditions: for TEAD3 TAZ HTRF combined: Max % Inhibition: TEAD3, TAZ peptide; for EC50: TEAD3-TAZ HTRF, TR-FRET 665 nm/615 nm, read-out: TEAD3 TAZ HTRF combined: EC50
TEAD3 TAZ (amino acids 13-57), sequence (Q99594 173-435 limits assumed): as the sequence (Q99594 173-435 limits assumed) above
Procedure, shortened: as §1

[4] = biological target: TEAD4 TAZ (amino acids 13-57) (Homo sapiens, UniProt Q15561); assay: TEAD4-TAZ HTRF (TR-FRET) protein-protein interaction assay; conditions: for TEAD4 TAZ HTRF combined: Max % Inhibition: TEAD4, TAZ peptide; for EC50: TEAD4-TAZ HTRF, TR-FRET 665 nm/615 nm, read-out: TEAD4 TAZ HTRF combined: EC50
TEAD4 TAZ (amino acids 13-57), sequence (Q15561 217-434 limits assumed): as the sequence (Q15561 217-434 limits assumed) above
Procedure, shortened: as §1

TEAD2 YAP50-100, sequence (Q15562 217-447): as the sequence (Q15562 217-447) above

Structure (SMILES) | TEAD2 YAP50-100 HTRF combined: Max % Inhibition (TEAD2 YAP50-100) [%] | EC50 (TEAD2 YAP50-100) [µM] | TEAD4 YAP50-100 HTRF combined: Max % Inhibition (TEAD4 YAP50-100) [%] | EC50 (TEAD4 YAP50-100) [µM] | TEAD1 YAP50-100 HTRF combined: Max % Inhibition (TEAD1 YAP50-100) [%] | EC50 (TEAD1 YAP50-100) [µM] | TEAD1 TAZ HTRF combined: Max % Inhibition [1] [%] | EC50 [1] [µM] | TEAD3 YAP50-100 HTRF combined: Max % Inhibition (TEAD3 YAP50-100) [%] | EC50 (TEAD3 YAP50-100) [µM] | TEAD2 TAZ HTRF combined: Max % Inhibition [2] [%] | EC50 [2] [µM] | TEAD3 TAZ HTRF combined: Max % Inhibition [3] [%] | EC50 [3] [µM] | TEAD4 TAZ HTRF combined: Max % Inhibition [4] [%] | EC50 [4] [µM]
CC(C)(C)c1ccc(COc2cc(=O)n3nc(-c4cnccn4)c(C(=O)N4CC(CF)C4)c3[nH]2)cc1 [Compound 53, 5-((4-(Tert-butyl)benzyl)oxy)-3-(3-(fluoromethyl)azetidine-1-carbonyl)-2-(pyrazin-2-yl)pyrazolo[1,5-a]pyrimidin-7(4H)-one] | 64.5 | 0.02 | 65.5 | 0.05 | 72.0 | 0.05 | 62.5 | 0.07 | 58.5 | 0.11 | 67.0 | 0.02 | 46.0 | 0.09 | 51.5 | 0.03
CC(C)(C)c1ccc(COc2cc(=O)n3nc(-c4ncccn4)c(C(=O)N4CC(CF)C4)c3[nH]2)cc1 [Compound 54, 5-((4-(Tert-butyl)benzyl)oxy)-3-(3-(fluoromethyl)azetidine-1-carbonyl)-2-(pyrimidin-2-yl)pyrazolo[1,5-a]pyrimidin-7(4H)-one] | 59.0 | 0.02 | 60.5 | 0.04 | 71.0 | 0.05 | 63.0 | 0.07 | 56.5 | 0.08 | 59.5 | 0.02 | 45.0 | 0.09 | 56.0 | 0.04
Cc1nccnc1-c1nn2c(=O)cc(-c3ccc(C4CCC(F)(F)CC4)cc3)[nH]c2c1C(=O)N1CC(CF)C1 [Compound 55, 5-(4-(4,4-Difluorocyclohexyl)phenyl)-3-(3-(fluoromethyl)azetidine-1-carbonyl)-2-(3-methylpyrazin-2-yl)pyrazolo[1,5-a]pyrimidin-7(4H)-one] | 56.5 | 0.06 | 44.5 | 0.14 | 72.0 | 0.26 | 67.0 | 0.24 | 62.0 | 0.2 | 60.0 | 0.05 | 55.0 | 0.21 | 39.5 | 0.11
Cc1nccnc1-c1nn2c(=O)cc(-c3ccc(C(F)(F)C4CCCC4)cc3)[nH]c2c1C(=O)N1CC(CF)C1 [Compound 56, 5-(4-(Cyclopentyldifluoromethyl)phenyl)-3-(3-(fluoromethyl)azetidine-1-carbonyl)-2-(3-methylpyrazin-2-yl)pyrazolo[1,5-a]pyrimidin-7(4H)-one] | 61.0 | 0.01 | 33.0 | 0.03 | 57.0 | 0.06 | 57.0 | 0.07 | 49.5 | 0.1 | 60.0 | 0.01 | 43.0 | 0.11 | 35.0 | 0.02
O=C(c1c(-c2ncccn2)nn2c(=O)cc(-c3ccc(C4(C5CCCC5)CC4)cc3)[nH]c12)N1CC(CF)C1 [Compound 57, 5-(4-(1-Cyclopentylcyclopropyl)phenyl)-3-(3-(fluoromethyl)azetidine-1-carbonyl)-2-(pyrimidin-2-yl)pyrazolo[1,5-a]pyrimidin-7(4H)-one] | 51.0 | 0.02 | 35.0 | 0.07 | 56.0 | 0.08 | 46.5 | 0.07 | 53.0 | 0.1 | 53.5 | 0.01 | 50.5 | 0.09 | 54.5 | 0.06
